Measured values taken from patent US8343696B2, “Colored curable composition, fluorine-containing dipyrromethene compound and tautomer thereof, and fluorine-containing dipyrromethene metal complex and tautomer thereof, and color filter using the same and method for producing the color filter” (FUJIFILM Corporation, priority 2008, dated 2013).

Legend:
Format in all cases: physicochemical
[1] = Heat resistance of coating film (color difference ΔEab before and after heating); details: 100° C. for 1 hour on hot plate
Protocol: A glass substrate having undercoat layer formed by applying the colored resin composition obtained in section 3 above was heat-treated at 100° C. for 1 hour using a hot plate, and the color difference (ΔEab) between before and after the heating was determined by using a […] MCPD-1000 (trade name, manufactured by Otsuka Electronics Co., Ltd.). The heat resistance was evaluated according to the following criteria. A smaller AEab value indicates better heat resistance.
(§1) A: ΔEab value was less than 6
(§2) B: ΔEab value was from 6 to 10
(§3) C: ΔEab value was more than 10

[2] = Storage stability of colored resist solution (precipitation after one month at room temperature); set-up: key: A: No precipitation was observed; B: Slight precipitation was observed; C: Precipitation was observed; details: negative-working colored resist solution, visual precipitation
Source text: 9.4 g of the resist solution obtained in section 1 above and 0.35 g of the exemplary compound Ia-12 synthesized above (a compound represented by Formula (4): dipyrromethene complex compound) were mixed and dissolved, whereby a colored resist solution (a negative-working ultraviolet-sensitive colored curable composition) was obtained.
The colored resist solution was stored for one month at room temperature, and then degree of precipitation was visually observed. The storage stability was evaluated according to the following criteria.
A: No precipitation was observed
B: Slight precipitation was observed
C: Precipitation was observed

[3] = Transmittance at 450 nm of the color filter; details: negative-working colored resist, 1.0 μm film; transmittance at λmax normalized to 2%
Protocol: The colored resist solution obtained in section 3 above was applied to an undercoat layer side of the glass substrate having an undercoat layer obtained in section 2 above by a spin coater such that a film thickness was 1.0 μm. Subsequently, the film was pre-baked at 100° C. for 120 sec, whereby a monochromatic color filter was obtained.
The transmission spectrum of the color filter obtained above was measured, and the transmittance at 450 nm was evaluated according to the following criteria. The transmittance of the color filter at 450 nm was evaluated by correcting (normalizing) the transmittance at the maximum absorption wavelength of the colorant included in the color filter to 2%. A larger transmittance indicates greater transmission of blue light, which indicates favorable magenta or violet color that can be used in a blue filter.
A: Transmittance at 450 nm was 90% or more
B: Transmittance at 450 nm was 80% or more but not more than 90%
C: Transmittance at 450 nm was not more than 80%

[4] = Light-fastness of coating film (color difference ΔEab before and after xenon lamp irradiation); details: xenon lamp 20,000 luxes for 10 hours (200,000 lux·h)
Protocol: A glass substrate having undercoat layer formed by applying the colored resin composition obtained in section 3 above was irradiated with a xenon lamp at an intensity of 20,000 luxes for 10 hours (equivalent to 200,000 lux·h), and the color difference ΔEab between before and after the irradiation was determined. The light-fastness was evaluated according to the following criteria. A smaller ΔEab value indicates better light-fastness.
as §1, §2, §3

[5] = Absorption spectrum in ethyl acetate solution (spectrophotometer UV-2400PC)
Protocol: In consideration of film thickness, the molar absorption coefficient of the specific metal complex compounds-1, -2, -3 and -4 of the invention is preferably as high as possible, and 60,000 or higher is preferable. The maximum absorption wavelength (λmax) thereof is preferably from 520 nm to 580 nm, and more preferably from 530 nm to 570 nm, in order to improve color purity. The maximum absorption wavelength and the molar absorption coefficient are determined by using a spectrophotometer UV-2400PC (manufactured by Shimadzu Corporation).
The molar absorption coefficient (ε) of each of the obtained compounds was measured in an ethyl acetate solution using a spectrophotometer (trade name: UV-2400PC; manufactured by Shimadzu Corporation). The absorbance (Abs) at 450 nm was evaluated by normalizing the absorbance at a maximum absorption wavelength (λmax) to 1.0. […] The measurement results of the absorbance (Abs value), maximum absorption wavelength (λmax), and molar absorption coefficient (ε) are shown in Table 1.
By the method similar to the reaction scheme in Synthesis Example 1 above, the exemplary compounds (dipyrromethene metal complex compounds or tautomers thereof) shown in Table 1 were synthesized. The identification of the compounds and the measurement of the maximum absorption wavelength (λmax) and the molar absorption coefficient (ε) of the compounds were performed similarly to Synthesis Example 1 above.

SMILES	Heat resistance [1]	Storage stability [2]	Light-fastness [4]	maximum absorption wavelength (λmax) [5]	molar absorption coefficient (ε) [5]	Abs value at 450 nm when normalized to Abs = 1.0 at λmax [5]	Transmittance at 450 nm [3]
CC1CC(C(C)(C)C)C(OC(=O)C2=C(c3ccccc3)C3=Cc4c(-c5ccccc5)c(C(=O)OC5C(C(C)(C)C)CC(C)CC5C(C)(C)C)c(NC(=O)c5c(F)c(F)c(C(=O)O)c(F)c5F)[n]4[Zn-]([OH])[N+]3=C2NC(=O)c2c(F)c(F)c(C(=O)O)c(F)c2F)C(C(C)(C)C)C1 (stereo not drawn) [IIb-38]	A (ΔEab value was less than 6)	A	A (ΔEab value was less than 6)	561 nm	105,900	0.0099	A (Transmittance at 450 nm was 90% or more)
Cc1c(C(=O)OC2C(C(C)(C)C)CC(C)CC2C(C)(C)C)c(NC(=O)c2ccccc2C(F)(F)F)[n]2c1C=C1C(c3ccccc3)=C(C#N)C(NC(=O)C(C)Sc3cc(C(=O)O)cc(C(=O)O)c3)=[N+]1[Zn-]2[OH] (stereo not drawn) [Ia-12]	A (ΔEab value was less than 6)	A	A (ΔEab value was less than 6)	560 nm	81,400	0.0154	A (Transmittance at 450 nm was 90% or more)

Second part, led by results:

Heat resistance [1]	Storage stability [2]	Light-fastness [4]	maximum absorption wavelength (λmax) [5]	molar absorption coefficient (ε) [5]	Abs value at 450 nm when normalized to Abs = 1.0 at λmax [5]	SMILES	Transmittance at 450 nm [3]
A (ΔEab value was less than 6)	A	A (ΔEab value was less than 6)	565 nm	121,000	0.082	CC1CC(C(C)(C)C)C(OC(=O)C2=C(c3ccccc3)C3=Cc4c(-c5ccccc5)c(C(=O)OC5C(C(C)(C)C)CC(C)CC5C(C)(C)C)c(NC(=O)c5cc(F)ccc5NS(C)(=O)=O)[n]4[Zn-]([OH])[N+]3=C2NC(=O)c2cc(F)ccc2NS(C)(=O)=O)C(C(C)(C)C)C1 (stereo not drawn) [IIb-20]	A (Transmittance at 450 nm was 90% or more)
A (ΔEab value was less than 6)	B	A (ΔEab value was less than 6)	564 nm	100,900	0.091	CC1CC(C(C)(C)C)C(OC(=O)C2=C(c3ccccc3)C3=Cc4c(-c5ccccc5)c(C(=O)OC5C(C(C)(C)C)CC(C)CC5C(C)(C)C)c(NC(=O)c5ccc(F)c(Br)c5)[n]4[Zn-]([OH])[N+]3=C2NC(=O)c2ccc(F)c(Br)c2)C(C(C)(C)C)C1 (stereo not drawn) [IIb-24]	A (Transmittance at 450 nm was 90% or more)
A (ΔEab value was less than 6)	A	A (ΔEab value was less than 6)	559 nm	91,400	0.0143	CC1CC(C(C)(C)C)C(OC(=O)C2=C(c3ccccc3)C3=Cc4c(-c5ccccc5)c(C(=O)OC5C(C(C)(C)C)CC(C)CC5C(C)(C)C)c(NC(=O)c5cc(F)c(F)c(F)c5)[n]4[Zn-]([OH])[N+]3=C2NC(=O)c2cc(F)c(F)c(F)c2)C(C(C)(C)C)C1 (stereo not drawn) [IIb-32]	A (Transmittance at 450 nm was 90% or more)
A (ΔEab value was less than 6)	A	A (ΔEab value was less than 6)	562 nm	107,300	0.0087	CC1CC(C(C)(C)C)C(OC(=O)C2=C(c3ccccc3)C3=Cc4c(-c5ccccc5)c(C(=O)OC5C(C(C)(C)C)CC(C)CC5C(C)(C)C)c(NC(=O)c5c(F)c(F)c(F)c(F)c5F)[n]4[Zn-]([OH])[N+]3=C2NC(=O)c2c(F)c(F)c(F)c(F)c2F)C(C(C)(C)C)C1 (stereo not drawn) [IIb-40]	A (Transmittance at 450 nm was 90% or more)
